Measured values from patent publication EP3958980B1, “TARGETED NOVEL TRIAZOLOTHIADIAZINE DERIVATIVES FOR THE TREATMENT OF LUNG CANCER” (Anadolu Universitesi, priority 2020, dated 2021).
Values after ≈ are worked out from the molar mass of the structure shown. Values joined by “and” are separate entries in the source; they are usually repeats but may differ in a detail not shown here. Equal entries are not always repeated.

Assays:
[1] = system: CCD-19Lu normal lung fibroblast cells; experiment: MTT assay, in vitro cytotoxic activity on CCD-19Lu; format: cell-based; conditions: for IC50: Homo sapiens, CCD 19Lu, 24 hour incubation, read-out: IC50 values (µg/mL) CCDLul9 cell line
Experimental: The in vitro cytotoxic effects of the compounds were determined with the MTT assay. For this purpose, MTT test was performed using A549 and CCD-19Lu cell lines. After the cell lines used in the invention were centrifuged following taking them out from liquid nitrogen (-196 °C), the cells were cultured in a CO2 incubator comprising 5% CO2 at 37 °C in flasks containing 10% fetal bovine serum (FBS), where CCD-19Lu cells were cultured with Dulbecco's Modified Eagle's Medium (DMEM) and A549 cells were cultured with Roswell Park Memorial Institute (RPMI). The cells that reach the sufficient number for the assay, were seeded to 96 well plates such that 2×10^3 cells were placed in each well and at the same time, components at concentrations of 1-500 µg/mL were added to cells and they were incubated at 37 °C. At the end of the 24 hour incubation period, the MTT powder (5 mg/mL in 1 × phosphate buffered saline (PBS)) was added to each well (20 µL). After a 2-4 h period under the same conditions, the medium was removed from the plate and 100 µL of DMSO was added to each well to dissolve the dye and kept for 10 minutes. Then the plates were read at a wavelength of 540 nm using ELx808-IU Bio-Tek plate reader. The control cell viability which was not treated with the components was accepted to be 100% and the viability rates of the cells were expressed as %. […] According to the results obtained, the dose range was extended until the IC50 value was determined.
MTT assay is a frequently used method which measures the cytotoxic effects of the compounds on the cells by converting the yellow colored MTT stain into purple colored formazan crystals via the mitochondrial succinate dehydrogenase activity. In the cytotoxic activity tests of the compounds, A549 lung adenocarcinoma and CCDLu19 normal lung fibroblast cell lines were used.

Akt = Akt colorimetric in cell ELISA in A549 cells; format: cell-based, human; conditions: 24 hours; for Akt inhibition (in words): compared to cisplatin and GSK690693
Experimental: After 10.000 cells were seeded in the wells, they were kept in the incubator for 24 hours. […] Briefly, the medium was removed from the wells and 100 µL of 4% formaldehyde was added. The plate was incubated in a fume hood for 15 minutes. Formaldehyde was removed and the plate was washed twice with 1X […] (TBS) such as to be 100 µL/well. 1X TBS was removed and 100 µL 1X permeabilization solution was added to each well and it was kept at room temperature for 15 minutes. After the 1X permeabilization solution was removed, the wells were washed with 100 µL 1X TBS once. 1X TBS was removed and 100 µL quenching solution was added to each well and it was kept at room temperature for 20 minutes. Afterwards, this solution was removed. The plate was washed 1 time with 1X TBS and 100 µL blocking solution was added to the wells and it was kept at room temperature for 30 minutes. At the end of this period, the blocking solution was removed and 50 µL primary antibody was added to the wells. The plate was sealed with a cover and it was incubated overnight at 4 °C. The primary antibody was removed and the plate wells were washed 3 times with 100 µL 1X washing solution. After the washing solution was removed, 100 µL diluted horseradish peroxidase (HRP) conjugate was added and it was incubated at room temperature for 30 minutes. Later on this conjugate was removed and 100 µL 3,3',5,5'-tetramethylbenzidine (TMB) […] was added to each well and the absorbance values were read at 450 nm for 30 minutes. The experiment was carried out in triplicate. The values of the blank wells were subtracted from the values of the untreated control and treated cells. The Akt activity% was determined as the relative absorbance of treated versus untreated control cells.

COX-2 = target: T1, COX-2 (Homo sapiens, UniProt P35354); experiment: COX activity assay (colorimetric kit) on lysates of treated A549 cells, COX-2; format: cell-based; conditions: 24 hours incubation, IC50 concentrations
T1 construct: endogenous in cells; host or cells: A549
T1 sequence (P35354 18-604): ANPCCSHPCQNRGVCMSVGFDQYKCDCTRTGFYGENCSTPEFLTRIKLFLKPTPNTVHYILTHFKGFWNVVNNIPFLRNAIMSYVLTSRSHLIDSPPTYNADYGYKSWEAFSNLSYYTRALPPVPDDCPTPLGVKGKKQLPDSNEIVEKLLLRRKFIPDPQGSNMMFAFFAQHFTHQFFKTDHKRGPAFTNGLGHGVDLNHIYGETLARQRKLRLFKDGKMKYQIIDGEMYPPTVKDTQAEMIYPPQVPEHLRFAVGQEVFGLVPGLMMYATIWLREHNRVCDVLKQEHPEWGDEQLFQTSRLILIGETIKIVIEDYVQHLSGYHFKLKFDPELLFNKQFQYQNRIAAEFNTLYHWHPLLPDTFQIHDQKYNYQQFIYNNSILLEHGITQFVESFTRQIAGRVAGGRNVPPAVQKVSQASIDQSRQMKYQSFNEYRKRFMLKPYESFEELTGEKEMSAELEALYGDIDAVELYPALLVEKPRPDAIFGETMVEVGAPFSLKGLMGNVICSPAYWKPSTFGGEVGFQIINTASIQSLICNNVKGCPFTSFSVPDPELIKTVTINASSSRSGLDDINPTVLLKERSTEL
Experimental: The intracellular COX, Akt and ROCK inhibitory effects of the active compounds determined with the MTT assay, were measured with the colorimetric assay according to the manufacturer's recommendations.
COX activity was carried out using Cayman COX activity assay kit in compliance with the manufacturer's recommendations. Briefly, 150 µL of each sample was kept in boiling water for 5 minutes and centrifuged at 8000 × g for 1 minute and it was used to obtain background values. […] 110 µL assay solution, 10 µL hemin and 40 µL sample, 10 µL DuP-697 or SC-560 was added to the inhibitor wells (DuP-697 inhibits COX-2 activity; while SC-560 inhibits COX-1 activity). The plate was shaked for a few seconds and it was left at 25 °C for 5 minutes. 20 µL colorimetric substrate was added to all wells. Moreover, a reaction was started by adding 20 µL arachidonic acid solution and the plate was shaked for a few seconds and it was left at 25 °C for 5 minutes. The absorbance values were read at 540 nm.

[2] = IC50/2 concentration (9: 2.88; 11: 0.37; 12: 0.40; 14: 1.32; GSK690693: 3.34; Cisplatin: 11.50 µg/mL)
[3] = IC50/4 concentration (9: 1.44; 11: 0.18; 12: 0.20; 14: 0.66; GSK690693: 1.69; Cisplatin: 5.75 µg/mL)
[4] = IC50 concentration (9: 5.75; 11: 0.73; 12: 0.80; 14: 2.63; GSK690693: 6.75; Cisplatin: 23.00 µg/mL)

SMILES	cytotoxicity against CCDLu19 cells (in words) [1]	IC50 [1] [µg/mL]	Akt Inhibition% (Akt; [2]) [%]	Akt Inhibition% (Akt; [3]) [%]	Akt Inhibition% (Akt; [4])	Akt inhibition (in words) (Akt)	COX-2 activity (U/mL) (COX-2)	COX-2 Inhibition% (COX-2)	Akt Inhibition% (Akt; IC50 concentration (9: 5.75; 11: 0.73; 12: 0.80; 14: 2.63; GSK690693: 6.75; Cisplatin: 23.00 µg/mL), listed as cisplatin) [%]
FC(F)(F)c1ccc(C2=Nn3c(CCc4ccc5c(c4)OCO5)nnc3SC2)cc1 [Compound 11, 3-[2-(1,3-Benzodioxole-5-yl)ethyl]-6-(4-trifluoromethylphenyl)-7H-[1,2,4]triazolo [3,4-b][1,3,4]thiadiazine]	non-cytotoxic	113 ± 5.77 (≈ 262 µM)	6.66±3.51	0.91±1.29	8.18±3.74%	did not exhibit significant Akt inhibition	1.46		
Fc1cccc(C2=Nn3c(CCc4ccc5c(c4)OCO5)nnc3SC2)c1 [Compound 12, 3-[2-(1,3-Benzodioxole-5-yl)ethyl]-6-(3-fluorophenyl)-7H-[1,2,4]triazolo [3,4-b] [1,3,4]thiadiazine]	non-cytotoxic	34.3 ± 2.08 (≈ 89.8 µM)	16.67±0.05	19.24±2.43	46.87% and 46.87±4.60%	moderate Akt inhibition	1.95	53.52%	
N.N.[Cl][Pt][Cl] [Cisplatin, reference compound]			56.23±1.45	50.46±6.89	59.55±8.44%		2.38	43.46%	59.55
c1ccc(-c2ccc(C3=Nn4c(CCc5ccc6c(c5)OCO6)nnc4SC3)cc2)cc1 [Compound 14, 3-[2-(1,3-Benzodioxole-5-yl)ethyl]-6-(biphenyl-4-yl)-7H-[1,2,4]triazolo[3,4-b] [1,3,4]thiadiazine]	non-cytotoxic	65 ± 5 (≈ 148 µM)	15.99±3.66	23.51±3.00	44.30% and 44.30±5.68%	moderate Akt inhibition	3.56	15.17% and 15.70%	
CS(=O)(=O)c1ccc(C2=Nn3c(CCc4ccc5c(c4)OCO5)nnc3SC2)cc1 [Compound 9]	non-cytotoxic	102 ± 10.4 (≈ 230 µM)	7.31±1.48	15.99±1.06	45.47% and 45.47±3.76%	moderate Akt inhibition	3.60	32.66%	
